{"source": "ChEMBL document CHEMBL4130433", "about": "“Acridone-pyrimidine hybrids- design, synthesis, cytotoxicity studies in resistant and sensitive cancer cells and molecular docking studies” (Eur J Med Chem, 2017)", "key": {"Rattus norvegicus [1]": {"test_system": "Rattus norvegicus", "test": "Toxicity in overnight fasted albino Wistar rat assessed as body weight at 300 mg/kg, po administered as single dose followed by fasting for 3 hrs measured on day 14 post dose (reference value: 191 +/- 18 g)", "type": "organism-based", "details": "in vivo"}, "Rattus norvegicus [2]": {"test_system": "Rattus norvegicus", "test": "Toxicity in overnight fasted albino Wistar rat assessed as body weight at 300 mg/kg, po administered as single dose followed by fasting for 3 hrs measured on day 4 post dose (reference value: 169 +/- 5 g)", "type": "organism-based", "details": "in vivo"}, "Rattus norvegicus [3]": {"test_system": "Rattus norvegicus", "test": "Toxicity in overnight fasted albino Wistar rat assessed as body weight at 5000 mg/kg, po administered as single dose followed by fasting for 3 hrs measured on day 11 post dose (reference value: 185 +/- 8 g)", "type": "organism-based", "details": "in vivo"}, "Rattus norvegicus [4]": {"test_system": "Rattus norvegicus", "test": "Toxicity in overnight fasted albino Wistar rat assessed as body weight at 5000 mg/kg, po administered as single dose followed by fasting for 3 hrs measured on day 13 post dose (reference value: 188 +/- 16 g)", "type": "organism-based", "details": "in vivo"}, "Rattus norvegicus [5]": {"test_system": "Rattus norvegicus", "test": "Toxicity in overnight fasted albino Wistar rat assessed as body weight at 2000 mg/kg, po administered as single dose followed by fasting for 3 hrs measured on day 7 post dose (reference value: 175 +/- 10 g)", "type": "organism-based", "details": "in vivo"}, "Rattus norvegicus [6]": {"test_system": "Rattus norvegicus", "test": "Toxicity in overnight fasted albino Wistar rat assessed as body weight at 5000 mg/kg, po administered as single dose followed by fasting for 3 hrs measured on day 3 post dose (reference value: 166 +/- 10 g)", "type": "organism-based", "details": "in vivo"}, "MDA-MB-231": {"test_system": "MDA-MB-231", "test": "Antiproliferative activity against human MDA-MB-231 cells after 72 hrs by MTT assay", "type": "functional, cell-based", "details": "MDA-MB-231, 72 h"}, "Rattus norvegicus [7]": {"test_system": "Rattus norvegicus", "test": "Toxicity in overnight fasted albino Wistar rat assessed as body weight at 300 mg/kg, po administered as single dose followed by fasting for 3 hrs measured on day 11 post dose (reference value: 185 +/- 8 g)", "type": "organism-based", "details": "in vivo"}, "Rattus norvegicus [8]": {"test_system": "Rattus norvegicus", "test": "Toxicity in overnight fasted albino Wistar rat assessed as body weight at 5000 mg/kg, po administered as single dose followed by fasting for 3 hrs measured on day 6 post dose (reference value: 173 +/- 12 g)", "type": "organism-based", "details": "in vivo"}, "Rattus norvegicus [9]": {"test_system": "Rattus norvegicus", "test": "Toxicity in overnight fasted albino Wistar rat assessed as body weight at 300 mg/kg, po administered as single dose followed by fasting for 3 hrs measured on day 5 post dose (reference value: 172 +/- 14 g)", "type": "organism-based", "details": "in vivo"}, "Rattus norvegicus [10]": {"test_system": "Rattus norvegicus", "test": "Toxicity in overnight fasted albino Wistar rat assessed as body weight at 5000 mg/kg, po administered as single dose followed by fasting for 3 hrs measured on day 4 post dose (reference value: 169 +/- 5 g)", "type": "organism-based", "details": "in vivo"}, "Rattus norvegicus [11]": {"test_system": "Rattus norvegicus", "test": "Toxicity in overnight fasted albino Wistar rat assessed as body weight at 2000 mg/kg, po administered as single dose followed by fasting for 3 hrs measured on day 2 post dose (reference value: 165 +/- 12 g)", "type": "organism-based", "details": "in vivo"}, "Rattus norvegicus [12]": {"test_system": "Rattus norvegicus", "test": "Toxicity in overnight fasted albino Wistar rat assessed as body weight at 2000 mg/kg, po administered as single dose followed by fasting for 3 hrs measured on day 10 post dose (reference value: 182 +/- 15 g)", "type": "organism-based", "details": "in vivo"}, "Rattus norvegicus [13]": {"test_system": "Rattus norvegicus", "test": "Toxicity in overnight fasted albino Wistar rat assessed as body weight at 300 mg/kg, po administered as single dose followed by fasting for 3 hrs measured on day 1 post dose (reference value: 162 +/- 8 g)", "type": "organism-based", "details": "in vivo"}, "Rattus norvegicus [14]": {"test_system": "Rattus norvegicus", "test": "Toxicity in overnight fasted albino Wistar rat assessed as body weight at 5000 mg/kg, po administered as single dose followed by fasting for 3 hrs measured on day 9 post dose (reference value: 180 +/- 12 g)", "type": "organism-based", "details": "in vivo"}, "SW1573 [15]": {"test_system": "SW1573", "test": "Antiproliferative activity against resistant human SW1573 2R 160 cells harboring P-gp after 72 hrs by MTT assay", "type": "functional, cell-based", "details": "SW1573, 72 h"}, "Rattus norvegicus [16]": {"test_system": "Rattus norvegicus", "test": "Toxicity in overnight fasted albino Wistar rat assessed as body weight at 5000 mg/kg, po administered as single dose followed by fasting for 3 hrs measured on day 8 post dose (reference value: 177 +/- 8 g)", "type": "organism-based", "details": "in vivo"}, "Rattus norvegicus [17]": {"test_system": "Rattus norvegicus", "test": "Toxicity in overnight fasted albino Wistar rat assessed as body weight at 5000 mg/kg, po administered as single dose followed by fasting for 3 hrs measured on day 14 post dose (reference value: 191 +/- 18 g)", "type": "organism-based", "details": "in vivo"}, "Rattus norvegicus [18]": {"test_system": "Rattus norvegicus", "test": "Toxicity in overnight fasted albino Wistar rat assessed as body weight at 5000 mg/kg, po administered as single dose followed by fasting for 3 hrs measured on day 7 post dose (reference value: 175 +/- 10 g)", "type": "organism-based", "details": "in vivo"}, "Rattus norvegicus [19]": {"test_system": "Rattus norvegicus", "test": "Toxicity in overnight fasted albino Wistar rat assessed as clinical signs at 300 to 5000 mg/kg, po administered as single dose followed by fasting for 3 hrs measured for every 1 hr up to 12 hrs on first day of dosing and thereafter twice in a day for 14 days", "type": "organism-based", "details": "in vivo"}, "2008 [20]": {"test_system": "2008", "test": "Antiproliferative activity against resistant human 2008 cells clone 4 harboring MRP1 after 72 hrs by MTT assay", "type": "functional, cell-based", "details": "Homo sapiens, 2008, 72 h"}, "Rattus norvegicus [21]": {"test_system": "Rattus norvegicus", "test": "Toxicity in overnight fasted albino Wistar rat assessed as body weight at 300 mg/kg, po administered as single dose followed by fasting for 3 hrs measured on day 7 post dose (reference value: 175 +/- 10 g)", "type": "organism-based", "details": "in vivo"}, "2008 [22]": {"test_system": "2008", "test": "Antiproliferative activity against human 2008 cells after 72 hrs by MTT assay", "type": "functional, cell-based", "details": "Homo sapiens, 2008, 72 h"}, "Rattus norvegicus [23]": {"test_system": "Rattus norvegicus", "test": "Toxicity in overnight fasted albino Wistar rat assessed as body weight at 300 mg/kg, po administered as single dose followed by fasting for 3 hrs measured on day 13 post dose (reference value: 188 +/- 16 g)", "type": "organism-based", "details": "in vivo"}, "HeLa": {"test_system": "HeLa", "test": "Antiproliferative activity against human HeLa cells after 72 hrs by MTT assay", "type": "functional, cell-based"}, "[24]": {"test": "Antiproliferative activity against human MCF7/DX cells after 72 hrs by MTT assay", "type": "functional, cell-based"}, "Rattus norvegicus [25]": {"test_system": "Rattus norvegicus", "test": "Toxicity in overnight fasted albino Wistar rat assessed as body weight at 2000 mg/kg, po administered as single dose followed by fasting for 3 hrs measured on day 1 post dose (reference value: 162 +/- 8 g)", "type": "organism-based", "details": "in vivo"}, "Rattus norvegicus [26]": {"test_system": "Rattus norvegicus", "test": "Toxicity in overnight fasted albino Wistar rat assessed as body weight at 5000 mg/kg, po administered as single dose followed by fasting for 3 hrs measured on day 2 post dose (reference value: 165 +/- 12 g)", "type": "organism-based", "details": "in vivo"}, "SW1573 [27]": {"test_system": "SW1573", "test": "Antiproliferative activity against resistant human SW1573 2R 120 cells harboring MRP1 after 72 hrs by MTT assay", "type": "functional, cell-based", "details": "SW1573, 72 h"}, "SW1573 [28]": {"test_system": "SW1573", "test": "Antiproliferative activity against human SW1573 cells after 72 hrs by MTT assay", "type": "functional, cell-based", "details": "SW1573, 72 h"}, "Rattus norvegicus [29]": {"test_system": "Rattus norvegicus", "test": "Toxicity in overnight fasted albino Wistar rat assessed as body weight at 300 mg/kg, po administered as single dose followed by fasting for 3 hrs measured on day 9 post dose (reference value: 180 +/- 12 g)", "type": "organism-based", "details": "in vivo"}, "Rattus norvegicus [30]": {"test_system": "Rattus norvegicus", "test": "Toxicity in overnight fasted albino Wistar rat assessed as body weight at 300 mg/kg, po administered as single dose followed by fasting for 3 hrs measured on day 8 post dose (reference value: 177 +/- 8 g)", "type": "organism-based", "details": "in vivo"}, "Rattus norvegicus [31]": {"test_system": "Rattus norvegicus", "test": "Toxicity in overnight fasted albino Wistar rat assessed as body weight at 300 mg/kg, po administered as single dose followed by fasting for 3 hrs measured on day 2 post dose (reference value: 165 +/- 12 g)", "type": "organism-based", "details": "in vivo"}, "[32]": {"target": "RAC-alpha serine/threonine-protein kinase (Homo sapiens, UniProt P31749)", "sequence (P31749 whole entry, the tested form may be a part)": "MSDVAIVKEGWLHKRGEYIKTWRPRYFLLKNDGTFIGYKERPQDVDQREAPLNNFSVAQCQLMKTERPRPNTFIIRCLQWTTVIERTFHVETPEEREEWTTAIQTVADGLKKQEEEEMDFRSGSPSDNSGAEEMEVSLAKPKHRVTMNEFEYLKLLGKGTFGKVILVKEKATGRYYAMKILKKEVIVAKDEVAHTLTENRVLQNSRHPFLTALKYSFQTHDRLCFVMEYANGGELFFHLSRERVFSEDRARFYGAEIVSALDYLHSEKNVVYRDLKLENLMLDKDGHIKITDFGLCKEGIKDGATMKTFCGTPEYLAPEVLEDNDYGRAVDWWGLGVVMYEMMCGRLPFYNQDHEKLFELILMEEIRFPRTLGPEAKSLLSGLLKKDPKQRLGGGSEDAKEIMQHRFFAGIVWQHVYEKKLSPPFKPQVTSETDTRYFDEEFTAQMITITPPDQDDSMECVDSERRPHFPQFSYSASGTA", "test": "Inhibition of PH domain lacking AKT1 (unknown origin) using Tamara-labeled GRPRTSSFAEG peptide as substrate after 90 mins by fluorescence polarization IMAP assay"}}, "data": [{"compound": "COC(=O)c1c(C)nc(NNC(=O)c2cccc3c(=O)c4ccccc4[nH]c23)nc1-c1ccc(OC)c(OC)c1", "values": [{"measurement": "Activity", "setting": "Rattus norvegicus [1]", "result": 208, "unit": "g"}, {"measurement": "Activity", "setting": "Rattus norvegicus [2]", "result": 186, "unit": "g"}, {"measurement": "Activity", "setting": "Rattus norvegicus [3]", "result": 219, "unit": "g"}, {"measurement": "Activity", "setting": "Rattus norvegicus [4]", "result": 224, "unit": "g"}, {"measurement": "Activity", "setting": "Rattus norvegicus [5]", "result": 195, "unit": "g"}, {"measurement": "Activity", "setting": "Rattus norvegicus [6]", "result": 192, "unit": "g"}, {"measurement": "IC50", "setting": "MDA-MB-231", "result": 62.9, "unit": "µM"}, {"measurement": "Activity", "setting": "Rattus norvegicus [7]", "result": 196, "unit": "g"}, {"measurement": "Activity", "setting": "Rattus norvegicus [8]", "result": 202, "unit": "g"}, {"measurement": "Activity", "setting": "Rattus norvegicus [9]", "result": 188, "unit": "g"}, {"measurement": "Activity", "setting": "Rattus norvegicus [10]", "result": 196, "unit": "g"}, {"measurement": "Activity", "setting": "Rattus norvegicus [11]", "result": 184, "unit": "g"}, {"measurement": "Activity", "setting": "Rattus norvegicus [12]", "result": 202, "unit": "g"}, {"measurement": "Activity", "setting": "Rattus norvegicus [13]", "result": 182, "unit": "g"}, {"measurement": "Activity", "setting": "Rattus norvegicus [14]", "result": 212, "unit": "g"}, {"measurement": "IC50", "setting": "SW1573 [15]", "result": 12, "unit": "µM"}, {"measurement": "Activity", "setting": "Rattus norvegicus [16]", "result": 208, "unit": "g"}, {"measurement": "Activity", "setting": "Rattus norvegicus [17]", "result": 228, "unit": "g"}, {"measurement": "Activity", "setting": "Rattus norvegicus [18]", "result": 206, "unit": "g"}, {"measurement": "Activity", "setting": "Rattus norvegicus [19]", "result": "Non-Toxic"}, {"measurement": "IC50", "setting": "2008 [20]", "result": 42, "unit": "µM"}, {"measurement": "Activity", "setting": "Rattus norvegicus [21]", "result": 191, "unit": "g"}, {"measurement": "IC50", "setting": "2008 [22]", "result": 26, "unit": "µM"}, {"measurement": "Activity", "setting": "Rattus norvegicus [23]", "result": 204, "unit": "g"}, {"measurement": "IC50", "setting": "HeLa", "result": 63.5, "unit": "µM"}, {"measurement": "IC50", "setting": "[24]", "result": 78, "unit": "µM"}, {"measurement": "Activity", "setting": "Rattus norvegicus [25]", "result": 183, "unit": "g"}, {"measurement": "Activity", "setting": "Rattus norvegicus [26]", "result": 189, "unit": "g"}, {"measurement": "IC50", "setting": "SW1573 [27]", "result": "> 100", "unit": "µM"}, {"measurement": "IC50", "setting": "SW1573 [28]", "result": 4, "unit": "µM"}, {"measurement": "Activity", "setting": "Rattus norvegicus [29]", "result": 193, "unit": "g"}, {"measurement": "Activity", "setting": "Rattus norvegicus [30]", "result": 192, "unit": "g"}, {"measurement": "Activity", "setting": "Rattus norvegicus [31]", "result": 183, "unit": "g"}, {"measurement": "IC50", "setting": "[32]", "result": 0.311, "unit": "µM"}]}]}
